Molecules are shown by their SMILES.

Experiment in all cases: KINOMEscan
What all share (type): binding
Holding throughout (conditions): read-out: Percent Control

One assay addresses T1, RIPK2 (Homo sapiens, UniProt O43353).
T1 construct: purchased Eurofins DiscoverX KINOMEscan (scanMAX 468)

The target in the next assay is T2, IRAK1 (Homo sapiens, UniProt P51617).
T2 construct: purchased Eurofins DiscoverX KINOMEscan (scanMAX 468)

Another assay addresses T3, DDR1 (Homo sapiens, UniProt Q08345).
T3 construct: purchased Eurofins DiscoverX KINOMEscan (scanMAX 468)

The next assay addresses T4, MST4 (Homo sapiens, UniProt Q9P289).
T4 construct: purchased Eurofins DiscoverX KINOMEscan (scanMAX 468)

T1 sequence (O43353 whole entry): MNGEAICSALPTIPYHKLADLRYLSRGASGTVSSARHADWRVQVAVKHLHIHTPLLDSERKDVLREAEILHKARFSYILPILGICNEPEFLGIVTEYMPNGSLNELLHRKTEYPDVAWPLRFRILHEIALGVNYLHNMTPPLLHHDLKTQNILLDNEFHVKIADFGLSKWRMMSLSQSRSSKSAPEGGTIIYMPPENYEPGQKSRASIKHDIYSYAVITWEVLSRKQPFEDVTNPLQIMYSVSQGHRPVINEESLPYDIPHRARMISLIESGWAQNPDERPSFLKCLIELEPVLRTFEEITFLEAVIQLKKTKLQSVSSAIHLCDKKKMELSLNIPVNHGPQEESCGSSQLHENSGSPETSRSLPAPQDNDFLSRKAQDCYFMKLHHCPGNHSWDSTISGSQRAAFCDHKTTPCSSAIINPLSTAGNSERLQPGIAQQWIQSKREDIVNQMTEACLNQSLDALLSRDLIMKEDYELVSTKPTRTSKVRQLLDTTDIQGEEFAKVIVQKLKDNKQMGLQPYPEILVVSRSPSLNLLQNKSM
T3 sequence (Q08345 19-913): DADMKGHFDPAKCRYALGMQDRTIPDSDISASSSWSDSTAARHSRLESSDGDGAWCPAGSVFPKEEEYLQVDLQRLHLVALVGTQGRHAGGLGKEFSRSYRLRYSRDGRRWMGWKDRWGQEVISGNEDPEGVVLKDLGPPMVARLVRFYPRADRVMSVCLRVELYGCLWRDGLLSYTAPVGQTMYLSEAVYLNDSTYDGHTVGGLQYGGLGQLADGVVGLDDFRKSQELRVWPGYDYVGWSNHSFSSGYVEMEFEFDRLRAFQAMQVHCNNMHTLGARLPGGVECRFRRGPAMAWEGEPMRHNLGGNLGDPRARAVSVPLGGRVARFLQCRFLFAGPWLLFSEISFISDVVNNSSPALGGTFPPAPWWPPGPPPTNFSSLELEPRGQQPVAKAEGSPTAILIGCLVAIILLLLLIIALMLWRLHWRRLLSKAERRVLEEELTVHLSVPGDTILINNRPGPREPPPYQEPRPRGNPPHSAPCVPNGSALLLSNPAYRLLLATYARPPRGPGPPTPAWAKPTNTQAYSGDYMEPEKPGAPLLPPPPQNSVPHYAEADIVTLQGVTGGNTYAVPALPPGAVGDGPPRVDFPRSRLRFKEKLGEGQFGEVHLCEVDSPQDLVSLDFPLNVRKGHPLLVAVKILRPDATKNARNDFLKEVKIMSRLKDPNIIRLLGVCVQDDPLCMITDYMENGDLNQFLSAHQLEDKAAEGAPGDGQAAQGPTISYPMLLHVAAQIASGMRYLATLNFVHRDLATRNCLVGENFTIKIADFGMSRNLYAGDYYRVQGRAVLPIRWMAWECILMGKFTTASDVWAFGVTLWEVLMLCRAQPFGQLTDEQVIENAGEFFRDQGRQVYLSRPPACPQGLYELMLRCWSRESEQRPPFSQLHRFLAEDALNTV
T2 sequence (P51617 whole entry): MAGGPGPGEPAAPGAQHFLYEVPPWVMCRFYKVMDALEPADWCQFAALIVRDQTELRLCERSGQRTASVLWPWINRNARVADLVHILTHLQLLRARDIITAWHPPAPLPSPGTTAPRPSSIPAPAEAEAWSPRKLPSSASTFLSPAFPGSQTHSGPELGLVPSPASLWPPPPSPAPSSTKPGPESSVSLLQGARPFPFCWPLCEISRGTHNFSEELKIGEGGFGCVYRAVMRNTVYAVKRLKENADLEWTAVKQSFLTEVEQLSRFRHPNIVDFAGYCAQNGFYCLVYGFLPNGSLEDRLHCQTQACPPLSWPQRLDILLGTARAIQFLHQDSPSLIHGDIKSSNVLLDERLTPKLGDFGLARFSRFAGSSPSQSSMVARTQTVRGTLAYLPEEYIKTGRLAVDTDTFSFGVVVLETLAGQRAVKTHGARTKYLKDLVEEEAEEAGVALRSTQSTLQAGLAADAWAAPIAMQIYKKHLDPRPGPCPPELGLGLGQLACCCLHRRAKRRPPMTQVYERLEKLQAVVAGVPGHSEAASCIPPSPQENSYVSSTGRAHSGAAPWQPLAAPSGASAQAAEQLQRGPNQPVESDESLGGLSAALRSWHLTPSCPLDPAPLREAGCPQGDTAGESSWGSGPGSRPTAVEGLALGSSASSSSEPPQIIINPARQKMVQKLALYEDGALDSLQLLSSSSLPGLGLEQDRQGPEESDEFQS
T4 sequence (Q9P289 whole entry): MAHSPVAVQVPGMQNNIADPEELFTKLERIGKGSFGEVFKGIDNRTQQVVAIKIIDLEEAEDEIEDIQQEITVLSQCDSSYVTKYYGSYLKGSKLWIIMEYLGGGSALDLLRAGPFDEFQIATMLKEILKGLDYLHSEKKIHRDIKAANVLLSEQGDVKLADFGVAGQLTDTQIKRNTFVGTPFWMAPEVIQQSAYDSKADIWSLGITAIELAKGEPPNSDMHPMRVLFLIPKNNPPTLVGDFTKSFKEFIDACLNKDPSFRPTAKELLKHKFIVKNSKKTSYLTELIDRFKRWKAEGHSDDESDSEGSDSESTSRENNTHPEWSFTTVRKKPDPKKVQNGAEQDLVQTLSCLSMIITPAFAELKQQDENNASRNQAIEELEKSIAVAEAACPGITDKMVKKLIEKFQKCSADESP

As for `Cc1ccc(-n2cc(COc3cccc4cnc(Nc5cccc(Cl)c5)nc34)nn2)c([N+](=O)[O-])c1` [DB18], the remaining binding at 1 µM at RIPK2 came to 98%; at IRAK1, 100%; at DDR1, 100%; on MST4, 97%.

The values are drawn from publication PMC9571063 (Molecules, 2022).
